Measured values: ChEMBL document CHEMBL1159182, “SAR of cocaine: further exploration of structural variations at the C-2 center provides compounds of subnanomolar binding potency” (Bioorg Med Chem Lett, 1993)
Values joined by “and” are separate entries in the source; they are usually repeats but may differ in a detail not shown here. Identical values can stand only once.

Tests used:
[1] = molecular target: T1, Sodium-dependent dopamine transporter (Homo sapiens, UniProt Q01959); experiment: Inhibitory concentration against [3H]dopamine uptake; type: functional
T1 sequence (Q01959 whole entry): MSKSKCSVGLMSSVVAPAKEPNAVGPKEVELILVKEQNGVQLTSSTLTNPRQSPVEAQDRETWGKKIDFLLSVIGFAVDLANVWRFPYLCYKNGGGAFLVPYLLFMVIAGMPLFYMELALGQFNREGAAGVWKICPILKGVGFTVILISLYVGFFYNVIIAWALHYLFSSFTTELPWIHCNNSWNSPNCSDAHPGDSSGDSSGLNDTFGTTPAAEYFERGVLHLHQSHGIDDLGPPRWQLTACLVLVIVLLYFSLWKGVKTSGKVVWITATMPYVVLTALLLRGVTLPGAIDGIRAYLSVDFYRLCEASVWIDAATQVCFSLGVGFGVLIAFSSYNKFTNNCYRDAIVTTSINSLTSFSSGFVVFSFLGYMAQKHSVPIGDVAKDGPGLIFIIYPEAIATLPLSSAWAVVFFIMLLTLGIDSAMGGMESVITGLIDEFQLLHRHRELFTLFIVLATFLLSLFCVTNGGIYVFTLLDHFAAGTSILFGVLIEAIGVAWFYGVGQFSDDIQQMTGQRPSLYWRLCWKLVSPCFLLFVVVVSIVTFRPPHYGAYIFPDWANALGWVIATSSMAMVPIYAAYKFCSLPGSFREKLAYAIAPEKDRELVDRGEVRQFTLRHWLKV

[2] = molecular target: T1, Sodium-dependent dopamine transporter; experiment: Displacement of [3H]mazindol from dopamine transporter
[3] = molecular target: T1, Sodium-dependent dopamine transporter; experiment: Ability to displace [3H]mazindol from dopamine transporter
[4] = molecular target: T1, Sodium-dependent dopamine transporter; experiment: Inhibitory concentration required for [3H]dopamine uptake; not being isolated; type: functional
[5] = molecular target: T1, Sodium-dependent dopamine transporter; experiment: Ability to displace [3H]mazindol to dopamine receptor; not being isolated
[6] = molecular target: T1, Sodium-dependent dopamine transporter; experiment: Ability to displace [3H]-Mazindol from dopamine receptor
[7] = molecular target: T1, Sodium-dependent dopamine transporter; experiment: Binding constant for the ability to displace [3H]mazindol to dopamine receptor was calculated from the Cheng-Prusoff relationship
[8] = molecular target: T1, Sodium-dependent dopamine transporter; experiment: Binding constant for [3H]dopamine uptake was calculated from the Cheng-Prusoff relationship

SMILES | IC50 [1] | IC50 [2] | other results
CN1C2CCC1[C@H](C(=O)C(F)(F)F)[C@@H](c1ccc(Cl)cc1)C2 (stereo partly specified) | 377 nM | 1190 nM | –
COC(=O)C1C2CC[C@H](C[C@@H]1c1ccc(Cl)cc1)N2C (stereo partly specified) | 3.2 nM | – | IC50 [3]: 1.7 nM
CN1C2CCC1[C@@H]([C@H](O)C(F)(F)F)[C@@H](c1ccc(Cl)cc1)C2 (stereo partly specified) | – | – | IC50 [4]: not isolated; IC50 [5]: not isolated
CN1C2CCC1[C@@H]([C@@H](O)C(F)(F)F)[C@@H](c1ccc(Cl)cc1)C2 (stereo partly specified) | 10.5 nM | 9.2 nM | –
C=C[C@@H]1C2CCC(C[C@@H]1c1ccc(Cl)cc1)N2C (stereo partly specified) | 2.8 nM | – | IC50 [6]: 1.2 nM
CN1C2CCC1[C@@H](/C=C/Cl)[C@@H](c1ccc(Cl)cc1)C2 (stereo in doubt; 4) | 1.3 nM | 0.73 nM | –
CC[C@@H]1C2CCC(C[C@@H]1c1ccc(Cl)cc1)N2C (stereo partly specified) | 2.6 nM | 3.5 nM | –
CN1C2CCC1[C@@H](C(=O)C(F)(F)F)[C@@H](c1ccc(Cl)cc1)C2 (stereo partly specified) | – | – | IC50 [4]: not isolated; IC50 [5]: not isolated
CN1C2CCC1[C@H](C(O)C(F)(F)F)[C@@H](c1ccc(Cl)cc1)C2 (stereo in doubt; 13) | 525 nM | 1100 nM | –
CN1C2CCC1[C@@H](/C=C/Cl)[C@@H](c1ccc(Cl)cc1)C2 (stereo in doubt; 5) | 0.99 nM | 0.36 nM | Ki [7]: 0.22 nM; Ki [8]: 0.88 nM
CN1C2CCC1[C@H](C(O)C(F)(F)F)[C@@H](c1ccc(Cl)cc1)C2 (stereo in doubt; 12) | 125 nM | 166 nM | –
CN1C2CCC1[C@H](/C=C/Cl)[C@@H](c1ccc(Cl)cc1)C2 (stereo partly specified) | 19 nM and 16 nM | 24 nM and 18 nM | –
